In PubChem BioAssay (NCI):
Where “and” joins values, the source holds several entries; their conditions need not be identical. Equal values may be shown once.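 Where inhibition never reached the appropriate level, the endpoint shown equals the highest concentration tested. Otherwise, values were interpolated linearly from a five-concentration, 48-hour dose response in 96-well plates. GI50: concentration for 50% inhibition of growth. TGI is the concentration that stops growth completely.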

How the values were obtained:
Assay in all cases: growth of human tumour cells (NCI), 48 h
HOP-92 NSCLC = tested on: HOP-92 NSCLC
SF-268 CNS = tested on: SF-268 CNS
CCRF-CEM leukemia = tested on: CCRF-CEM leukemia
RXF 393 renal = tested on: RXF 393 renal
K-562 leukemia = tested on: K-562 leukemia
IGROV1 ovarian = tested on: IGROV1 ovarian
UACC-257 melanoma = tested on: UACC-257 melanoma
ACHN renal = tested on: ACHN renal
T-47D breast = tested on: T-47D breast
NCI-H23 lung = tested on: NCI-H23 lung
NCI-H226 lung = tested on: NCI-H226 lung
SF-539 CNS = tested on: SF-539 CNS
HOP-62 NSCLC = tested on: HOP-62 NSCLC
SK-MEL-2 melanoma = tested on: SK-MEL-2 melanoma
M14 melanoma = tested on: M14 melanoma
CAKI-1 renal = tested on: CAKI-1 renal
SNB-75 CNS = tested on: SNB-75 CNS
SK-MEL-5 melanoma = tested on: SK-MEL-5 melanoma
MDA-MB-435 = tested on: MDA-MB-435
MOLT-4 leukemia = tested on: MOLT-4 leukemia
HCC-2998 colon = tested on: HCC-2998 colon
OVCAR-5 ovarian = tested on: OVCAR-5 ovarian
UACC-62 melanoma = tested on: UACC-62 melanoma
HCT-116 colon = tested on: HCT-116 colon
NCI-H460 lung = tested on: NCI-H460 lung
SF-295 CNS = tested on: SF-295 CNS
TK-10 renal = tested on: TK-10 renal
UO-31 renal = tested on: UO-31 renal
MALME-3M melanoma = tested on: MALME-3M melanoma

Structure (SMILES): CC(=O)O[C@H]1C[C@H](O[C@H]2[C@@H](O)C[C@H](O[C@H]3[C@@H](O)C[C@H](O[C@H]4CC[C@@]5(C)C(CCC6C5C[C@@H](O)[C@]5(C)[C@@H](C7=CC(=O)OC7)CC[C@]65O)C4)O[C@@H]3C)O[C@@H]2C)O[C@H](C)[C@H]1O[C@@H]1O[C@H](CO)[C@@H](O)[C@H](O)[C@H]1O (some centres not stated)
- GI50 (HOP-92 NSCLC): 78.1 nM and 158 nM
- TGI (HOP-92 NSCLC): 243 nM and 612 nM
- GI50 (SF-268 CNS): 18.5 nM and 51.1 nM
- TGI (SF-268 CNS): 73.7 nM and 165 nM
- GI50 (CCRF-CEM leukemia): 17.3 nM and 33.3 nM
- TGI (CCRF-CEM leukemia): 49.7 nM and 180 nM
- GI50 (RXF 393 renal): 15.8 nM and 63.6 nM
- TGI (RXF 393 renal): 63.6 nM and 385 nM
- GI50 (K-562 leukemia): 27.2 nM
- TGI (K-562 leukemia): 204 nM
- GI50 (IGROV1 ovarian): 68.5 nM and 229 nM
- TGI (IGROV1 ovarian): 1370 nM and 1310 nM
- GI50 (UACC-257 melanoma): 85.2 nM and 347 nM
- TGI (UACC-257 melanoma): 162 nM and 1180 nM
- GI50 (ACHN renal): 20.4 nM and 44 nM
- TGI (ACHN renal): 69 nM and 179 nM
- GI50 (T-47D breast): 22.8 nM and 166 nM
- TGI (T-47D breast): 167 nM and 576 nM
- GI50 (NCI-H23 lung): 15.1 nM and 46.8 nM
- TGI (NCI-H23 lung): 58.6 nM and 206 nM
- GI50 (NCI-H226 lung): 174 nM
- TGI (NCI-H226 lung): 314 nM
- GI50 (SF-539 CNS): 21.7 nM and 105 nM
- TGI (SF-539 CNS): 78.3 nM and 225 nM
- GI50 (HOP-62 NSCLC): 19.6 nM and 65.1 nM
- TGI (HOP-62 NSCLC): 69.1 nM and 189 nM
- GI50 (SK-MEL-2 melanoma): 315 nM
- TGI (SK-MEL-2 melanoma): 1000 nM
- GI50 (M14 melanoma): 103 nM and 212 nM
- TGI (M14 melanoma): 244 nM and 399 nM
- GI50 (CAKI-1 renal): 29.4 nM and 81.3 nM
- TGI (CAKI-1 renal): 183 nM and 345 nM
- GI50 (SNB-75 CNS): 57.7 nM and 138 nM
- TGI (SNB-75 CNS): 147 nM and 304 nM
- GI50 (SK-MEL-5 melanoma): 18.7 nM and 109 nM
- TGI (SK-MEL-5 melanoma): 69.9 nM and 233 nM
- GI50 (MDA-MB-435): 110 nM and 275 nM
- TGI (MDA-MB-435): 307 nM and 893 nM
- GI50 (MOLT-4 leukemia): 11.7 nM and 25.7 nM
- TGI (MOLT-4 leukemia): 28.8 nM and 65.6 nM
- GI50 (HCC-2998 colon): 73 nM and 242 nM
- TGI (HCC-2998 colon): 210 nM and 678 nM
- GI50 (OVCAR-5 ovarian): 65.8 nM and 175 nM
- TGI (OVCAR-5 ovarian): 140 nM and 327 nM
- GI50 (UACC-62 melanoma): 93.8 nM and 173 nM
- TGI (UACC-62 melanoma): 196 nM and 343 nM
- GI50 (HCT-116 colon): 18.2 nM and 39.4 nM
- TGI (HCT-116 colon): 64 nM and 134 nM
- GI50 (NCI-H460 lung): 16.5 nM and 34.5 nM
- TGI (NCI-H460 lung): 55.7 nM and 135 nM
- GI50 (SF-295 CNS): 26.8 nM and 73.7 nM
- TGI (SF-295 CNS): 286 nM and 581 nM
- GI50 (TK-10 renal): 14.6 nM and 145 nM
- GI50 (UO-31 renal): 64.8 nM and 179 nM
- TGI (UO-31 renal): 237 nM and 343 nM
- GI50 (MALME-3M melanoma): 21.7 nM and 183 nM
- TGI (MALME-3M melanoma): 130 nM and 469 nM
